ChEMBL document CHEMBL4229367, “Identification of multi-target inhibitors of leukotriene and prostaglandin E2 biosynthesis by structural tuning of the FLAP inhibitor BRP-7” (Eur J Med Chem, 2018)

Target: T1, Prostaglandin E synthase (Homo sapiens) (UniProt O14684)
T1 sequence (whole entry): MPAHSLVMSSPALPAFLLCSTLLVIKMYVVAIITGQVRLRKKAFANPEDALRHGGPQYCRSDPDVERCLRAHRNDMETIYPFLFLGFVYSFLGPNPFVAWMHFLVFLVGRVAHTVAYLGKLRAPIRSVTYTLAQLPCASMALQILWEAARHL
Test: Inhibition of mPGES1 in IL-1beta-stimulated human A549 cell microsomal fractions assessed as reduction in PGE2 production at 3 uM preincubated for 15 mins followed by PGH2 substrate addition and measured after 1 min by RP-HPLC analysis relative to control

| SMILES | inhibition |
| --- | --- |
| CC(C)Cc1ccc(C(C)c2nc3cc(-c4ccccc4C(=O)O)ccc3n2Cc2ccccc2Cl)cc1 (configuration not stated) | > 50% |
| CC(C)Cc1ccc(C(C)c2nc3cc(-c4ccc(C(=O)O)cc4)ccc3n2Cc2ccccc2Cl)cc1 (configuration not stated) | > 50% |
| CC(C)Cc1ccc(C(C)c2nc3cc(OC(C)(C)C(=O)O)ccc3n2Cc2ccccc2Cl)cc1 (configuration not stated) | > 50% |
| CC(C)Cc1ccc(C(C)c2nc3cc(C#N)ccc3n2Cc2ccccc2Cl)cc1 (configuration not stated) | > 50% |
| N#Cc1ccc2c(c1)nc(CCc1ccc(-c3cnc(N)nc3)cc1)n2Cc1ccccc1Cl | < 50% |
| CC(Cc1ccc(-c2cnc(N)nc2)cc1)c1nc2cc(C#N)ccc2n1Cc1ccccc1Cl (configuration not stated) | < 50% |
| CC(C)Cc1ccc(C(C)c2nc3cc(CC(=O)O)ccc3n2Cc2ccccc2Cl)cc1 (configuration not stated) | > 50% |
| CC(C)Cc1ccc(C(C)c2nc3cc(S(N)(=O)=O)ccc3n2Cc2ccccc2Cl)cc1 (configuration not stated) | > 50% |
| CC(C)Cc1ccc(C(C)c2nc3cc(-c4nc(C(=O)O)cs4)ccc3n2Cc2ccccc2Cl)cc1 (configuration not stated) | > 50% |

Target: T2, Arachidonate 5-lipoxygenase-activating protein (Homo sapiens) (UniProt P20292)
T2 sequence (whole entry): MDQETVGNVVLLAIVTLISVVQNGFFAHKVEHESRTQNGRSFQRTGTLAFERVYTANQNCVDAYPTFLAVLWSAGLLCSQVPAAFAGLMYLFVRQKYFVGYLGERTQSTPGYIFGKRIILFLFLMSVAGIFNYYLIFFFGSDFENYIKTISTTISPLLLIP
Test: Inhibition of FLAP in A23187-stimulated human neutrophils assessed as remaining enzyme activity by measuring 5-LO product formation at 0.1 uM preincubated for 15 mins followed by A23187 and arachidonic acid addition and measured after 10 mins by UV based RP-HPLC analysis (reference value: 100%)

| SMILES | Activity |
| --- | --- |
| CC(C)Cc1ccc(C(C)c2nc3cc(-c4ccccc4C(=O)O)ccc3n2Cc2ccccc2Cl)cc1 (configuration not stated) | 104% |
| CC(C)Cc1ccc(C(C)c2nc3cc(-c4ccc(C(=O)O)cc4)ccc3n2Cc2ccccc2Cl)cc1 (configuration not stated) | 3.73% |
| CC(C)Cc1ccc(C(C)c2nc3cc(OC(C)(C)C(=O)O)ccc3n2Cc2ccccc2Cl)cc1 (configuration not stated) | 75.9% |
| N#Cc1ccc2c(c1)nc(CCc1ccc(-c3cnc(N)nc3)cc1)n2Cc1ccccc1Cl | 85.5% |
| CC(Cc1ccc(-c2cnc(N)nc2)cc1)c1nc2cc(C#N)ccc2n1Cc1ccccc1Cl (configuration not stated) | 84.1% |
| CC(C)Cc1ccc(C(C)c2nc3cc(CC(=O)O)ccc3n2Cc2ccccc2Cl)cc1 (configuration not stated) | 91.4% |
| CC(C)Cc1ccc(C(C)c2nc3cc(S(N)(=O)=O)ccc3n2Cc2ccccc2Cl)cc1 (configuration not stated) | 77.8% |
| CC(C)Cc1ccc(C(C)c2nc3cc(-c4nc(C(=O)O)cs4)ccc3n2Cc2ccccc2Cl)cc1 (configuration not stated) | 72.7% |

Target: T3, Leukotriene C4 synthase (Homo sapiens, UniProt Q16873)
T3 sequence (Q16873 whole entry): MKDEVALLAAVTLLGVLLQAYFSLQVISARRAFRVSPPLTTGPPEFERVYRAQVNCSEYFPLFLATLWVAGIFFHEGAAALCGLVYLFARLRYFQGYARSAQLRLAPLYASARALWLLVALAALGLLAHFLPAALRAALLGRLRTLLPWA
Test: Inhibition of human LTC4 synthase expressed in HEK293 cell microsomes preincubated for 10 mins followed by LTA4-methyl ester addition and measured after 10 mins by UPLC-MS/MS analysis

| SMILES | IC50 |
| --- | --- |
| CC(C)Cc1ccc(C(C)c2nc3cc(-c4ccc(C(=O)O)cc4)ccc3n2Cc2ccccc2Cl)cc1 (configuration not stated) | 15900 nM |

Target: T4, Polyunsaturated fatty acid 5-lipoxygenase (Homo sapiens, UniProt P09917)
T4 sequence (P09917 whole entry): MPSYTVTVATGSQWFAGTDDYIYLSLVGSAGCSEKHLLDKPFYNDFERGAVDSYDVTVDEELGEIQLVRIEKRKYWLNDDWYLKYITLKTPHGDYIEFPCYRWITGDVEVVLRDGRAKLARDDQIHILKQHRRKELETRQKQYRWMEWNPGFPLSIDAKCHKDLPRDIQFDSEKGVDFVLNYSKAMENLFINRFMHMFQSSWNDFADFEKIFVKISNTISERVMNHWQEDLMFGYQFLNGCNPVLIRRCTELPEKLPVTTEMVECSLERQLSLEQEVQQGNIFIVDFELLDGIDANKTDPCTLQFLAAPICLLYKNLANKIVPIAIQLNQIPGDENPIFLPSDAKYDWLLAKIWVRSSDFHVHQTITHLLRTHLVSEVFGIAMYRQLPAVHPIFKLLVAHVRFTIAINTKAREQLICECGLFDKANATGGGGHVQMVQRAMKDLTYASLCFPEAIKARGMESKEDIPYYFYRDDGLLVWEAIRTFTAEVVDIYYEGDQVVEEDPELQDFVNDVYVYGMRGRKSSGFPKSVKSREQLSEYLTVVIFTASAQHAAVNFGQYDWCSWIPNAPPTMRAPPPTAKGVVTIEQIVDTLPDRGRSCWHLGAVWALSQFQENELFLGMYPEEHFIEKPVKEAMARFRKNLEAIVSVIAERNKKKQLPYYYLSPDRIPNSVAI
Test: Inhibition of recombinant human 5-LO expressed in Escherichia coli BL21 incubated for 15 mins prior to prewarming for 30 secs followed by CaCl2+ and arachidonic acid addition and measured after 10 mins by RP-HPLC analysis

| SMILES | IC50 |
| --- | --- |
| CC(C)Cc1ccc(C(C)c2nc3cc(-c4ccc(C(=O)O)cc4)ccc3n2Cc2ccccc2Cl)cc1 (configuration not stated) | 3200 nM |

Target: T2, Arachidonate 5-lipoxygenase-activating protein (Homo sapiens)
Test: Inhibition of FLAP in A23187-stimulated human neutrophils assessed as remaining enzyme activity by measuring 5-LO product formation at 1 uM preincubated for 15 mins followed by A23187 and arachidonic acid addition and measured after 10 mins by UV based RP-HPLC analysis (reference value: 100%)

| SMILES | Activity |
| --- | --- |
| CC(C)Cc1ccc(C(C)c2nc3cc(-c4ccccc4C(=O)O)ccc3n2Cc2ccccc2Cl)cc1 (configuration not stated) | 65% |
| CC(C)Cc1ccc(C(C)c2nc3cc(-c4ccc(C(=O)O)cc4)ccc3n2Cc2ccccc2Cl)cc1 (configuration not stated) | 0% |
| CC(C)Cc1ccc(C(C)c2nc3cc(OC(C)(C)C(=O)O)ccc3n2Cc2ccccc2Cl)cc1 (configuration not stated) | 5.47% |
| N#Cc1ccc2c(c1)nc(CCc1ccc(-c3cnc(N)nc3)cc1)n2Cc1ccccc1Cl | 8.3% |
| CC(Cc1ccc(-c2cnc(N)nc2)cc1)c1nc2cc(C#N)ccc2n1Cc1ccccc1Cl (configuration not stated) | 4.2% |
| CC(C)Cc1ccc(C(C)c2nc3cc(CC(=O)O)ccc3n2Cc2ccccc2Cl)cc1 (configuration not stated) | 16.1% |
| CC(C)Cc1ccc(C(C)c2nc3cc(S(N)(=O)=O)ccc3n2Cc2ccccc2Cl)cc1 (configuration not stated) | 16.8% |
| CC(C)Cc1ccc(C(C)c2nc3cc(-c4nc(C(=O)O)cs4)ccc3n2Cc2ccccc2Cl)cc1 (configuration not stated) | 1.06% |

Target: T5, Arachidonate 5-lipoxygenase-activating protein (Homo sapiens, UniProt P20292)
T5 sequence (P20292 whole entry): T2 sequence (whole entry)
Test: Inhibition of FLAP in A23187-stimulated human neutrophils assessed as reduction in 5-LO product formation preincubated for 15 mins followed by A23187 and arachidonic acid addition and measured after 10 mins by UV based RP-HPLC analysis

| SMILES | IC50 |
| --- | --- |
| CC(C)Cc1ccc(C(C)c2nc3cc(-c4ccccc4C(=O)O)ccc3n2Cc2ccccc2Cl)cc1 (configuration not stated) | 1100 nM |
| CC(C)Cc1ccc(C(C)c2nc3cc(-c4ccc(C(=O)O)cc4)ccc3n2Cc2ccccc2Cl)cc1 (configuration not stated) | 40 nM |
| CC(C)Cc1ccc(C(C)c2nc3cc(OC(C)(C)C(=O)O)ccc3n2Cc2ccccc2Cl)cc1 (configuration not stated) | 200 nM |
| N#Cc1ccc2c(c1)nc(CCc1ccc(-c3cnc(N)nc3)cc1)n2Cc1ccccc1Cl | 370 nM |
| CC(Cc1ccc(-c2cnc(N)nc2)cc1)c1nc2cc(C#N)ccc2n1Cc1ccccc1Cl (configuration not stated) | 420 nM |
| CC(C)Cc1ccc(C(C)c2nc3cc(CC(=O)O)ccc3n2Cc2ccccc2Cl)cc1 (configuration not stated) | 450 nM |
| CC(C)Cc1ccc(C(C)c2nc3cc(S(N)(=O)=O)ccc3n2Cc2ccccc2Cl)cc1 (configuration not stated) | 280 nM |
| CC(C)Cc1ccc(C(C)c2nc3cc(-c4nc(C(=O)O)cs4)ccc3n2Cc2ccccc2Cl)cc1 (configuration not stated) | 150 nM |

Target: T6, Prostaglandin E synthase (Homo sapiens, UniProt O14684)
T6 sequence (O14684 whole entry): T1 sequence (whole entry)
Test: (§1) Inhibition of mPGES1 in IL-1beta-stimulated human A549 cell microsomal fractions assessed as reduction in PGE2 production preincubated for 15 mins followed by PGH2 substrate addition and measured after 1 min by RP-HPLC analysis relative to control

| SMILES | IC50 |
| --- | --- |
| CC(C)Cc1ccc(C(C)c2nc3cc(-c4ccc(C(=O)O)cc4)ccc3n2Cc2ccccc2Cl)cc1 (configuration not stated) | 2100 nM |

Target: T1, Prostaglandin E synthase (Homo sapiens)
Test: as §1

| SMILES | inhibition |
| --- | --- |
| CC(C)Cc1ccc(C(C)c2nc3cc(-c4ccc(C(=O)O)cc4)ccc3n2Cc2ccccc2Cl)cc1 (configuration not stated) | Dose-dependent effect |
